The target in data set [1] is Coagulation factor VII/tissue factor (Homo sapiens, UniProt P08709). Nature of the data set: Binding affinity to factor7a/TF complex. It is filed as protein-complex assay.
A short description of data set [2]: Mean residence time in iv dosed rat. It is filed as ADME, organism-based. As to conditions: in vivo.
The nature of data set [3]: Plasma clearance in iv dosed rat.
A short description of data set [4]: Bioavailability in sc dosed rat. It counts as ADME, organism-based. As to conditions: in vivo.

Each structure is given as a SMILES string.

Coagulation factor VII/tissue factor, sequence (P08709 61-212 limits assumed): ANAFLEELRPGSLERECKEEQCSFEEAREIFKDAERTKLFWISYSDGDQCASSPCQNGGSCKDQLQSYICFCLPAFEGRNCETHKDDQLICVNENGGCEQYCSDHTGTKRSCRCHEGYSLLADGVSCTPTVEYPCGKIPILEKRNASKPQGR
Coagulation factor VII/tissue factor, sequence (P08709 213-466 limits assumed): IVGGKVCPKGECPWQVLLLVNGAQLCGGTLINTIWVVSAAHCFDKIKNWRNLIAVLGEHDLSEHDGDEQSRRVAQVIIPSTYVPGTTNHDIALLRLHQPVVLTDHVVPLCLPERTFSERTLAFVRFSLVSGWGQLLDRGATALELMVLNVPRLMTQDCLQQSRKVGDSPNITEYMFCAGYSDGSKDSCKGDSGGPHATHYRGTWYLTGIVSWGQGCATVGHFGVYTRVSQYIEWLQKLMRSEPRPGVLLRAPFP
Coagulation factor VII/tissue factor, sequence (P13726 33-295 partner limits assumed): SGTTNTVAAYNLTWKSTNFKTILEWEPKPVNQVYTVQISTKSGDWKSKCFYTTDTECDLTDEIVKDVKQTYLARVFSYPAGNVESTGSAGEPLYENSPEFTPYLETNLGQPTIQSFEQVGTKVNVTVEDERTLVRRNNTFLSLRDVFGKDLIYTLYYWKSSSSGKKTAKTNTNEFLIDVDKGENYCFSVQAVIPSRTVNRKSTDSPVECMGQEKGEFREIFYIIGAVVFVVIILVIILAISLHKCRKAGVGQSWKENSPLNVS

Regarding `N=C(N)c1ccc2nc(-c3cc(C(CC(=O)O)CC(=O)O)cc(-c4cccc([N+](=O)[O-])c4)c3O)[nH]c2c1`, in data set [1], the inhibition constant (Ki) – broadly, a dissociation constant, usually derived from enzyme kinetics or from competition with a known ligand – is 0.036 µM.

Consider `N=C(N)c1ccc2[nH]c(-c3cc(C(CC(=O)O)CC(=O)O)cc(-c4cccc([N+](=O)[O-])c4)c3O)cc2c1`, for which the MRT (as a rule, the average time that molecules of a dose stay in the body) in data set [2] came out at 1.5 h. The compound also came in with a Ki in data set [1] of 0.013 µM.

Regarding `N=C(N)c1ccc2nc(-c3cc(CC(=O)O)cc(-c4cccc([N+](=O)[O-])c4)c3O)[nH]c2c1`, the MRT in data set [2] is under 1 h. Further, affinity in data set [1] was put at a Ki of 0.015 µM.

In the case of `N=C(N)c1ccc2[nH]c(-c3cc(CC(=O)O)cc(-c4cccc([N+](=O)[O-])c4)c3O)cc2c1`, the MRT in data set [2] is under 1 h.

Turning to `N=C(N)c1ccc2[nH]c(-c3cc(CC(CC(=O)O)C(=O)O)cc(-c4cc(F)ccc4O)c3O)nc2c1` (centres undefined), the clearance – broadly, the rate of elimination divided by the concentration – in data set [3] came out at 0.156 L/h/kg. In data set [2], this compound came in with an MRT of under 1 h. The compound further had an inhibition constant (Ki) in data set [1] of 0.004 µM.

Consider `N=C(N)c1ccc2nc(-c3cc(C(CCC(=O)O)C(=O)O)cc(-c4cccc([N+](=O)[O-])c4)c3O)[nH]c2c1` (centres undefined), for which the mean residence time (MRT) in data set [2] was 5 h. The compound further registered a Ki in data set [1] of 0.017 µM.

In the case of `N=C(N)c1ccc2[nH]c(-c3cc(C(CC(=O)O)C(=O)O)cc(-c4cccc([N+](=O)[O-])c4)c3O)nc2c1` (centres undefined), in data set [3], the clearance is 0.0024 L/h/kg. For the same compound, the MRT in data set [2] was over 24 h. Also, the inhibition constant (Ki) in data set [1] was 0.022 µM.

In the case of `N=C(N)c1ccc2[nH]c(-c3cc(CC(=O)O)cc(-c4cc(F)ccc4O)c3O)nc2c1`, the clearance in data set [3] worked out at 0.486 L/h/kg. The compound further showed a mean residence time MRT in data set [2] of under 1 h. In data set [1], this compound yielded an inhibition constant (Ki) of 0.002 µM.

`N=C(N)c1ccc2[nH]c(-c3cc(C(CC(=O)O)C(=O)O)cc(-c4cccc([N+](=O)[O-])c4)c3O)cc2c1` (centres undefined) registered a mean residence time (MRT) in data set [2] of over 24 h. The same compound yielded a Ki in data set [1] of 0.001 µM.

Take `N=C(N)c1ccc2nc(-c3cc(CC(C(=O)O)C(=O)O)cc(-c4cccc([N+](=O)[O-])c4)c3O)[nH]c2c1`: in data set [2], the MRT was under 1 h. This compound gave a Ki in data set [1] of 0.021 µM.

In data set [2], `N=C(N)c1ccc2[nH]c(-c3cc(C(CC(=O)O)C(=O)O)cc(-c4cc(F)ccc4O)c3O)nc2c1` (centres undefined) yielded an MRT of 9 h. The bioavailability (commonly dose-corrected exposure relative to a reference, in per cent) in data set [4] was over 90%. Moreover, the Ki in data set [1] turned out to be 0.004 µM.
